The values that follow come from ChEMBL document CHEMBL1137405, “Structural basis for the structure-activity relationships of peroxisome proliferator-activated receptor agonists” (J Med Chem, 2006).

For experiment [1], the target named is T1, Peroxisome proliferator-activated receptor delta (Homo sapiens, UniProt Q03181).
T1 sequence (Q03181 whole entry): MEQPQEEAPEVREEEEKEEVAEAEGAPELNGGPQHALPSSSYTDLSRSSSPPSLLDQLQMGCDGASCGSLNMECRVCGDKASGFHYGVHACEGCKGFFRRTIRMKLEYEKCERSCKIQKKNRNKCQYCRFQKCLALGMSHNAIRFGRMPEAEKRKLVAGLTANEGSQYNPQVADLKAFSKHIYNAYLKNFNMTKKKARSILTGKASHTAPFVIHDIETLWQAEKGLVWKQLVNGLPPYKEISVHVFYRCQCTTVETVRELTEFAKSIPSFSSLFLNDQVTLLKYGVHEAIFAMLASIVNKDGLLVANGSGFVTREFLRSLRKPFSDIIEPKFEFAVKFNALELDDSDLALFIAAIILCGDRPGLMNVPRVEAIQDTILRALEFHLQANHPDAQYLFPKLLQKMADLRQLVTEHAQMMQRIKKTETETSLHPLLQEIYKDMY
The experiment is described as follows: Activity at human PPAR delta in Huh7 cells by transactivation assay. Format: cell-based, Huh-7.

Experiment [2] has as its target T2, Peroxisome proliferator-activated receptor gamma (Homo sapiens, UniProt P37231).
T2 sequence (P37231 whole entry): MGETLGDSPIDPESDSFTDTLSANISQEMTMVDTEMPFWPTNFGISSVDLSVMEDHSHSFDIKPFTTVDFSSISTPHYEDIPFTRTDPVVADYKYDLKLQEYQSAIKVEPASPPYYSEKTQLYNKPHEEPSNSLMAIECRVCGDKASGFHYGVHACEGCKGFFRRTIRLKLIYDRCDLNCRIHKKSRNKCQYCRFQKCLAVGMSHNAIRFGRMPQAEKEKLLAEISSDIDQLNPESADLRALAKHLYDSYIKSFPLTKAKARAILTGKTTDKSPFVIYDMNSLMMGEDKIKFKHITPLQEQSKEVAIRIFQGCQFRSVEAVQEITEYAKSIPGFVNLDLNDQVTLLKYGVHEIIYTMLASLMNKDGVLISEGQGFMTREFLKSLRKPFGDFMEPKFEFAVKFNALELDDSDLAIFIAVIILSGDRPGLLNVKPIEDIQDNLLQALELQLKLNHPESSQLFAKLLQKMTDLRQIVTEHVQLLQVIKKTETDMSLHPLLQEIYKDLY
It is filed as cell-based, Huh-7.
Description: Activity at human PPAR gamma in Huh7 cells by transactivation assay

Experiment [3] concerns the target T3, Peroxisome proliferator-activated receptor alpha (Homo sapiens, UniProt Q07869).
T3 sequence (Q07869 whole entry): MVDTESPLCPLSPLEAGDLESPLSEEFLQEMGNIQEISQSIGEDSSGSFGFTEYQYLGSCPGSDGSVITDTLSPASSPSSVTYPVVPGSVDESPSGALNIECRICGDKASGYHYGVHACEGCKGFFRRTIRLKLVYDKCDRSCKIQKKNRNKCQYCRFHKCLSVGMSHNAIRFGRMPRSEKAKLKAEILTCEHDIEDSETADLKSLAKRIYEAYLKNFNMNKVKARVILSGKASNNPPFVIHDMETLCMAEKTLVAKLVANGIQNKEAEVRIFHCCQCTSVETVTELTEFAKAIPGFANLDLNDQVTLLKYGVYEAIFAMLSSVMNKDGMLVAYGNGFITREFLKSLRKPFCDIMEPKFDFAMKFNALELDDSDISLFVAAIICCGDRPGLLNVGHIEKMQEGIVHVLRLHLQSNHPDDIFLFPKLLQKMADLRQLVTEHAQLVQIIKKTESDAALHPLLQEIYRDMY
Kind of experiment: (§1) Activity at human PPAR alpha in Huh7 cells by transactivation assay. Format: cell-based, Huh-7.

Experiment [4] deals with T4, Peroxisome proliferator-activated receptor alpha (Homo sapiens) (UniProt Q07869).
T4 sequence (whole entry): T3 sequence (Q07869 whole entry)
Described as §1. As to conditions: Huh-7, filed as agonist. Format: cell-based.

Usually EC50 stands for the concentration at which the effect is half-maximal. Low values mean higher potency in that assay, high ones lower potency in that assay. Turning to `CCCc1c(OCCCn2ccc3c(OC(C)(C)C(=O)O)cccc32)ccc2cc(C(=O)c3ccccc3)ccc12`, the EC50 stood at 4300 nM in experiment [1], 210 nM in experiment [2] and 282 nM in experiment [3]. Besides, in experiment [4], the Activity result is “Agonist”.
As to `CCCc1c(OCCCOc2ccc3c(ccn3CC(=O)O)c2)ccc2cc(C(=O)c3ccccc3)ccc12`, in experiment [4], the Activity entry is “Agonist”.
For `CCCc1c(OCCCn2ccc3c(OCC(=O)O)cccc32)ccc2cc(C(=O)c3ccccc3)ccc12`, the EC50 is > 10000 nM in experiment [1], 4220 nM in experiment [2] and 206 nM in experiment [3].
Regarding `CCCc1c(OCCCn2ccc3ccc(OCC(=O)O)cc32)ccc2cc(C(=O)c3ccccc3)ccc12`, the EC50 in experiment [1] turned out to be 6980 nM; in experiment [2], 3470 nM; in experiment [3] it was 2080 nM.
Regarding `CCCc1c(OCCCn2ccc3cc(OC(C)(C)C(=O)O)ccc32)ccc2cc(C(=O)c3ccccc3)ccc12`, the half-maximal effective concentration (EC50) in experiment [1] is > 10000 nM; in experiment [2], 650 nM; in experiment [3] it was 123 nM. Also, the Activity entry in experiment [4] was “Agonist”.
On to `CCCc1c(OCCCn2ccc3cc(OCC(=O)O)ccc32)ccc2cc(C(=O)c3ccccc3)ccc12`, for which the concentration giving a half-maximal response (EC50) in experiment [1] is > 10000 nM; in experiment [2], 2210 nM; in experiment [3], 32 nM. Also, the Activity result in experiment [4] was “Agonist”.
With `CCCc1c(OCCCn2ccc3ccc(OC(C)(C)C(=O)O)cc32)ccc2cc(C(=O)c3ccccc3)ccc12`, the EC50 in experiment [1] worked out at 4630 nM; in experiment [2], 470 nM; in experiment [3], 1100 nM.
